Converted amounts (≈) assume the structure as drawn. Read-outs that look alike come from different tables or passages of the source.
Key:
[1] = tested on: H. influenzae; assay: MIC against standard strains (agar dilution); format: cell-based; details: Haemophilus influenzae
Protocol: (§1) Test example 1: Measurement of Minimum Inhibitory Concentration (MIC)
(§2) Specifically, test compounds were diluted by 2-fold dilution method and dispersed in Mueller-Hinton agar medium and then, 2µℓ of test strains were inoculated at a concentration of 10^7 cfu(colony forming unit)/mℓ on the medium and incubated for 20 hours at 37°C.

[2] = tested on: S. aureus; assay: MIC against standard strains (agar dilution); format: cell-based; details: Staphylococcus aureus, Mueller-Hinton agar, 10^7 cfu/mℓ, 20 hours at 37°C
Protocol: as §1, §2

[3] = tested on: S. pneumoniae; assay: MIC against standard strains (agar dilution); format: cell-based; details: Streptococcus pneumoniae, Mueller-Hinton agar, 10^7 cfu/mℓ, 20 hours at 37°C
Protocol: as §1, §2

[4] = tested on: P. vulgaris; assay: MIC against standard strains (agar dilution); format: cell-based; details: Proteus vulgaris, Mueller-Hinton agar, 10^7 cfu/mℓ, 20 hours at 37°C
Protocol: as §1, §2

[5] = tested on: E. coli; assay: MIC against standard strains (agar dilution); format: cell-based; details: Escherichia coli, Mueller-Hinton agar, 10^7 cfu/mℓ, 20 hours at 37°C
Protocol: as §1, §2

[6] = Pharmacokinetic experiment (blood concentration by HPLC); format: in vivo, mice; details: mice, 20mg/kg; for AUC / half-life: male, mouse, blood
Protocol: Test example 2: Pharmacokinetic experiment
Male mice, each of which has a body weight of […] were used in the present pharmacokinetic experiment. Test compounds were formulated into 1% of solution and then, the solution was administered by oral route and by injection with a dose of 20mg/kg, respectively. At the fixed interval of time after administration, blood was gathered from the mice. Concentrations of test compounds in blood were measured by HPLC quantitative analysis and based on the results, pharmacokinetic parameters were calculated.

MIC ([1]; H. influenzae, Mueller-Hinton agar, 10^7 cfu/mℓ, 20 hours at 37°C, read-out: MIC) [µg/mL]	AUC ([6]; Oral administration) [ng·h/mL]	half-life ([6]; Oral administration) [h]	half-life ([6]; intravenous injection) [h]	maximum conc. ([6]; Oral administration) [µg/mL]	Structure (SMILES)	MIC [2] [µg/mL]	MIC [3] [µg/mL]	MIC [4] [µg/mL]	MIC [5] [µg/mL]	AUC ([6]; intravenous, Injection) [ng·h/mL]	half-life ([6]; intravenous, Injection) [h]	MIC ([1]; 20 h) [µg/mL]
0.25 (≈ 0.632 µM)	6380	1.23	0.35	2.9	C=CC1=C(C(=O)O)N2C(=O)[C@@H](NC(=O)/C(=N\O)c3csc(N)n3)[C@H]2SC1 [Cefdinir, reference compound]	0.031 (≈ 0.0784 µM)	4 (≈ 10.1 µM)	0.031 (≈ 0.0784 µM)	0.016 (≈ 0.0405 µM)	50000	0.35	
					CO/N=C(\C(=O)NC1C(=O)N2C(C(=O)O)=C(SCSc3nccc(N)n3)CSC12)c1csc(N)n1 (stereo not shown) [Compound No. 2, 7-[(Z)-2-(2-amino-thiazol-4-yl)-2-methoxyimino-acetylamino]-8-oxo-3-(4-amino-pyrimidin-2-ylsulfanylmethylsulfanyl)-5-t hia-1-aza-bicyclo[4,2,0]oct-2-ene-2-carboxylic acid]	0.5 (≈ 0.901 µM)	0.25 (≈ 0.451 µM)	0.031 (≈ 0.0559 µM)	0.063 (≈ 0.114 µM)			0.008 (≈ 0.0144 µM)
					CO/N=C(\C(=O)NC1C(=O)N2C(C(=O)O)=C(SCSc3ncccn3)CSC12)c1csc(N)n1 (stereo not shown) [compound 1, 7-[(Z)-2-(2-amino-thiazol-4-yl)-2-methoxyimino-acetylamino]-8-oxo-3-(pyrimidin-2-ylsulfanylmethylsulfanyl)-5-thia-1-aza-bicyclo[4,2,0]oct-2-ene-2-carboxylic acid]	0.5 (≈ 0.927 µM)	0.5 (≈ 0.927 µM)	0.063 (≈ 0.117 µM)	0.13 (≈ 0.241 µM)			0.008 (≈ 0.0148 µM)
					CO/N=C(\C(=O)NC1C(=O)N2C(C(=O)O)=C(SCSc3nc(N)cc(N)n3)CSC12)c1csc(N)n1 (stereo not shown) [compound 3, 7-[(Z)-2-(2-amino-thiazol-4-yl)-2-methoxyimino-acetylamino]-3-(4,6-diamino-pyrimidin-2-ylsulfanylmethylsulfanyl)-8-oxo-5-thia-1-aza-bicyclo[4,2,0]oct-2-ene-2-carboxylic acid]	0.5 (≈ 0.878 µM)	0.25 (≈ 0.439 µM)	0.016 (≈ 0.0281 µM)	0.063 (≈ 0.111 µM)			0.016 (≈ 0.0281 µM)
					CO/N=C(\C(=O)NC1C(=O)N2C(C(=O)O)=C(SCSc3cc(N)nc(N)n3)CSC12)c1csc(N)n1 (stereo not shown) [compound 4, 7-[(Z)-2-(2-amino-thiazol-4-yl)-2-methoxyimino-acetylamino]-3-(2,6-diamino-pyrimidin-4-ylsulfanylmethylsulfanyl)-8-oxo-5-thia-1-aza-bicyclo[4,2,0]oct-2-ene-2-carboxylic acid]	0.25 (≈ 0.439 µM)	0.13 (≈ 0.228 µM)	0.016 (≈ 0.0281 µM)	0.063 (≈ 0.111 µM)			0.008 (≈ 0.014 µM)
					Nc1cc(N)nc(SCSC2=C(C(=O)O)N3C(=O)C(NC(=O)/C(=N\O)c4csc(N)n4)C3SC2)n1 (stereo not shown) [compound 5, 7-[(Z)-2-(2-amino-thiazol-4-yl)-2-hydroxyimino-acetylamino]-3-(4,6-diamino-pyrimidin-2-ylsulfanylmethylsulfanyl)-8-oxo-5-thia-1-aza-bicyclo[4,2,0]oct-2-ene-2-carboxylic acid]	0.13 (≈ 0.234 µM)	1 (≈ 1.8 µM)	0.031 (≈ 0.0558 µM)	0.063 (≈ 0.113 µM)			0.25 (≈ 0.45 µM)
					Nc1cc(SCSC2=C(C(=O)O)N3C(=O)C(NC(=O)/C(=N\O)c4csc(N)n4)C3SC2)nc(N)n1 (stereo not shown) [compound 6, 7-[(Z)-2-(2-amino-thiazol-4-yl)-2-hydroxyimino-acetylamino]-3-(2,6-diamino-pyrimidin-4-ylsulfanylmethylsulfanyl)-8-oxo-5-thia-1-aza-bicyclo[4,2,0]oct-2-ene-2-carboxylic acid]	0.13 (≈ 0.234 µM)	0.5 (≈ 0.9 µM)	0.031 (≈ 0.0558 µM)	0.031 (≈ 0.0558 µM)			0.5 (≈ 0.9 µM)
					CO/N=C(\C(=O)NC1C(=O)N2C(C(=O)O)=C(SCSc3cc(N)nc(N)n3)CSC12)c1nc(N)sc1Cl (stereo not shown) [compound 8, 7-[(Z)-2-(2-amino-5-chloro-thiazol-4-yl)-2-methoxyimino-acetylamino]-3-(2,6-diamino-pyrimidin-4-ylsulfanylmethylsulfanyl)-8-oxo-5-thia-1-aza-bicyclo[4,2,0]oct-2-ene-2-carboxylic acid]	0.25 (≈ 0.414 µM)	0.13 (≈ 0.215 µM)	0.25 (≈ 0.414 µM)	0.25 (≈ 0.414 µM)			0.031 (≈ 0.0513 µM)
	6320	1.15		3.2	CO/N=C(\C(=O)NC1C(=O)N2C(C(=O)O)=C(SCc3cnc(N)nc3N)CSC12)c1csc(N)n1 (stereo not shown) [compound 19, 7-[(Z)-2-(2-amino-1,3-thiazol-4-yl)-2-methoxyimino-acetylamino]-3-(2,4-diaminopyrimidin-5-ylmethylsulfanyl)-8-oxo-5-t hia-1-aza-bicyclo[4,2,0]oct-2-ene-2-carboxylic acid]							
					CO/N=C(\C(=O)NC1C(=O)N2C(C(=O)O)=C(SCc3cc(N)nc(N)n3)CSC12)c1csc(N)n1 (stereo not shown) [compound 20, 7-[(Z)-2-(2-amino-1,3-thiazol-4-yl)-2-methoxyimino-acetylamino]-3-(2,4-diaminopyrimidin-6-ylmethylsulfanyl)-8-oxo-5-t hia-1-aza-bicyclo[4,2,0]oct-2-ene-2-carboxylic acid]	2 (≈ 3.72 µM)	2 (≈ 3.72 µM)	0.016 (≈ 0.0298 µM)	0.031 (≈ 0.0577 µM)			0.031 (≈ 0.0577 µM)

Structure (SMILES)	MIC ([1]; H. influenzae, Mueller-Hinton agar, 10^7 cfu/mℓ, 20 hours at 37°C, read-out: MIC) [µg/mL]	AUC ([6]; Oral administration) [ng·h/mL]	half-life ([6]; Oral administration) [h]	half-life ([6]; intravenous injection) [h]	maximum conc. ([6]; Oral administration) [µg/mL]	MIC [2] [µg/mL]	MIC [3] [µg/mL]	MIC [4] [µg/mL]	MIC [5] [µg/mL]	AUC ([6]; intravenous, Injection) [ng·h/mL]	half-life ([6]; intravenous, Injection) [h]	MIC ([1]; 20 h) [µg/mL]
Nc1cc(SCSC2=C(C(=O)O)N3C(=O)C(NC(=O)/C(=N\O)c4nc(N)sc4Cl)C3SC2)nc(N)n1 (stereo not shown) [compound 7, 7-[(Z)-2-(2-amino-5-chloro-thiazol-4-yl)-2-hydroxyimino-acetylamino]-3-(2,6-diamino-pyrimidin-4-ylsulfanylmethylsulfanyl)-8-oxo-5-thia-1-aza-bicyclo[4,2,0]oct-2-ene-2-carboxylic acid]		59900	2.8		13.8	0.13 (≈ 0.22 µM)	0.25 (≈ 0.424 µM)	0.25 (≈ 0.424 µM)	0.25 (≈ 0.424 µM)	107000	2.32	0.13 (≈ 0.22 µM)

Source: patent EP1077981B1, “NOVEL CEPHALOSPORIN COMPOUNDS, PROCESSES FOR PREPARATION THEREOF AND ANTIMICROBIAL COMPOSITIONS CONTAINING THE SAME” (LG CHEMICAL LIMITED, priority 1998, dated 1999)
